Consider two compounds from US20230414771A1, “PREPARATION AND USE OF IMMUNOSTIMULATORY CONJUGATED COMPLEXES FOR TARGETED DELIVERY AND ACTIVATION” (YAFEI SHANGHAI BIOLOGY MEDICINE SCIENCE & TECHNOLOGY CO., …, priority 2020, published 2023).

As usually defined, the solubility is how much of the substance goes into solution per volume.

Series [1] concerns Human hepatoma HepG2 cells. The experiment in a line: Human liver cancer HepG2 tumors in nude mice. Particulars: for inhibition in vivo at 54 µmol/kg: Mus musculus, read-out: Tumor inhibition rate (%) Day 28. In kind it is in vivo. Summed up: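 Female nude mice aged 6-8 weeks bearing HepG2 xenografts, randomized at 100 mm^3 tumor size. Dosing IV from Day 1 at 54 umol/kg; DOX at 18 umol/kg.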

In series [2] the test system is BALB/C mice. The experiment in a line: Acute toxicity (MTD) of intravenous administration in mice. In kind it is in vivo. Conditions: 38.4 μmol/kg intravenous, 10 mice, observed 17 days. The procedure: They were randomly divided into 7 groups according to body weight, 10 mice in each group. […] The control test of saline group and paclitaxel group injection (commercially available, Beijing Youcare pharmaceutical) was carried out, the volume of administration was 0.2 ml for each mouse.

Series [3] concerns HT1080 tumors. In words: HT1080 tumor model in nude mice, 36 umol/kg. Conditions: for inhibition in vivo at 36 µmol/kg: Mus musculus, read-out: Tumor inhibition rate Day 28. In kind it is in vivo. The procedure:
• 1. Animals: nude mice aged 6-8 weeks, all female. • 2. Preparation of tumor models • 1) HT1080 cells were purchased from ATCC and characterized according to the instructions provided. […] Randomization was performed when the tumor size reached 100 mm^3. Treatment was then initiated, and the day of initiation of treatment was counted as Day 1. • 3) Treatment process
According to the clinical application of the corresponding compound, the drug was administered intravenously (IV). The compounds indicated in the table were administered at a low dose and at the same dose of 36 umol/kg.

Series [4] relates to acidified human breast cancer (MDA-MB435) tumor tissue homogenate. The experiment in a line: Activation efficiency of S-C-A linkers in tumor tissue homogenate, HPLC. In kind it is biochemical. Conditions: Table 2-1; C is AAN; 1 mg/ml, homogenate pH 6.0, 37° C. The procedure:
When C is AAN, the activation of the different S-C-A linkers and the control linker is evaluated in an activation assay. They were dissolved and diluted tenfold using S-C-A conjugates to a concentration of 0.1 mM/ml. The sample compounds were added at a concentration of 1 mg/ml to 100 μg of acidified human breast cancer (MDA—MB435) tumor tissue homogenate (pH 6.0) at 37° C. The enzyme in the tumor tissue homogenate was released and detected by HPLC to compare the efficiency of activation of the linker by the tumor tissue.
The effect of the D-type tripeptide on the activation efficiency was examined in comparison to the native peptide sequence linker cleaved by Legumain, S1 in MI-S is —CH2CH2—CONH—, S2: 2 peg.

The subject of series [5] is Human ovarian carcinoma SK-OV-3 tumor tissue homogenate. The experiment in a line: Activation in SK-OV-3 tumor tissue homogenate. Particulars: SK-OV-3 homogenate pH 6.0, 37° C., 1 mg/ml. In kind it is biochemical. The protocol: (§1) In the experiments of the present disclosure, 1 mg/ml of the sample compound was added to 100 μg of acidified tumor tissue homogenate (pH 6.0) at 37° C. The enzyme in the tumor tissue homogenate can cause the release of doxorubicin, and the reduction of compound and the increase of doxorubicin could be detected by HPLC to compare the activation efficiency of the drug in the tumor tissue.

For series [6], the system named is Human colon cancer HT-29 tumor tissue homogenate. In words: Activation in HT-29 tumor tissue homogenate. In kind it is biochemical. Conditions: HT-29 homogenate pH 6.0, 37° C., 1 mg/ml. The procedure: as §1
The nature of series [7]: Water solubility test (observation and HPLC). Conditions: thermodynamic from solid. In kind it is physicochemical. The procedure: The compounds prepared in accordance with the examples of the disclosure and the reference compounds C1, C2, C3 and C4 were lyophilized (−70° C.).

Each structure is given as a SMILES string. Like-named read-outs stand apart in the source and are kept apart here. Where a SMILES comes first, the peptide text is derived from it. The star is where a group is joined. Doxorubicin(3'-N) = COc1cccc2c1C(=O)c1c(O)c3c(c(O)c1C2=O)C[C@@](O)(C(=O)CO)C[C@@H]3O[C@H]1C[C@H](N*)[C@H](O)[C@H](C)O1; Hexanoyl(6-maleimido) = O=C1C=CC(=O)N1CCCCCC(=O)*

In the case of `COc1cccc2c1C(=O)c1c(O)c3c(c(O)c1C2=O)C[C@@](O)(C(=O)CO)C[C@@H]3O[C@H]1C[C@H](NC(=O)[C@H](CC(C)C)NC(=O)[C@H](CC(N)=O)NC(=O)[C@H](C)NC(=O)[C@H](C)NC(=O)CCOCCOCCNC(=O)CCN2C(=O)C=CC2=O)[C@H](O)[C@H](C)O1` [QHL-087-DOX], the inhibition in vivo at 54 µmol/kg in series [1] (HepG2, iv, 672 h) stood at 100%. The “Number of dead mice” value in series [2] was determined as 4. Besides, the inhibition in vivo at 36 µmol/kg in series [3] (HT-1080, iv, 672 h) was 100%.

On to `COc1cccc2c1C(=O)c1c(O)c3c(c(O)c1C2=O)C[C@@](O)(C(=O)CO)C[C@@H]3O[C@H]1C[C@H](NC(=O)[C@H](CC(C)C)NC(=O)[C@H](CC(N)=O)NC(=O)[C@H](C)NC(=O)[C@H](C)NC(=O)CCCCCN2C(=O)C=CC2=O)[C@H](O)[C@H](C)O1` [EMC-AANL-DOX] ({Hexanoyl(6-maleimido)}-AANL-{Doxorubicin(3'-N)}), for which the figures for the “Tumor volume (mm^3) Day 28” value in series [1] (54 umol/kg IV once a week for 4 weeks) and in series [3] (36 umol/kg IV once a week for 3 weeks) were 218.3 ± 167.7 mm^3 and 138.3 ± 124.6 mm^3, respectively. For the same compound, in series [1] (HepG2, 672 h, 54 umol/kg IV once a week for 4 weeks), the inhibition in vivo at 54 µmol/kg was determined as 92.5%. In series [1] (same molar dose), the “therapeutic effect on liver cancer, in words” value is recorded as “good effect on the treatment of liver cancer”. Further, the “Activation efficiency (%)” value in series [4] is reported as 56.4%. For the same compound, the “Compound activation ratios (%)” value in series [5] amounted to 58.4%; in series [6] it was 49.4%. Moreover, in series [2], the “Number of dead mice” value is given as 8. The inhibition in vivo at 36 µmol/kg in series [3] (HT-1080, 672 h, 36 umol/kg IV once a week for 3 weeks) was found to be 92.1%. The compound also displayed a solubility in series [7] of less than 5000 µg/mL.
